Data from PubChem BioAssay (NCI).
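Values below derive from 48-hour exposures of cells grown in 96-well plates, with endpoints linearly interpolated between the two concentrations bracketing the appropriate inhibition level. TGI is the concentration that stops growth completely.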 Where a SMILES comes first, the peptide text is derived from it. The star is where a group is joined. Boc = CC(C)(C)OC(=O)*; OSu = O=C1CCC(=O)N1O*

Tests used:
Assay in all cases: growth of human tumour cells (NCI), 48 h
MALME-3M melanoma = tested on: MALME-3M melanoma
A498 renal = tested on: A498 renal
HS 578T breast = tested on: HS 578T breast
OVCAR-4 ovarian = tested on: OVCAR-4 ovarian
SF-295 CNS = tested on: SF-295 CNS
KM12 colon = tested on: KM12 colon
TK-10 renal = tested on: TK-10 renal
MDA-N = tested on: MDA-N
SN12C renal = tested on: SN12C renal
BT-549 breast = tested on: BT-549 breast
SNB-19 CNS = tested on: SNB-19 CNS
DU-145 prostate = tested on: DU-145 prostate

SMILES: O=C(Cc1nc2ccc(C(=O)c3ccccc3)cc2[nH]c1=O)C(=O)Nc1ccc(Br)cc1
- TGI (MALME-3M melanoma): > 100 µM
- TGI (A498 renal): > 100 µM
- TGI (HS 578T breast): > 100 µM
- TGI (OVCAR-4 ovarian): > 100 µM
- TGI (SF-295 CNS): > 100 µM
- TGI (KM12 colon): > 100 µM
- TGI (TK-10 renal): > 100 µM
- TGI (MDA-N): > 100 µM
- TGI (SN12C renal): > 100 µM
- TGI (BT-549 breast): > 100 µM

SMILES: O=c1c2ccccc2[nH]c(=S)n1-c1ccc(N=Nc2cccc3c(O)cccc23)cc1
- TGI (MALME-3M melanoma): > 100 µM
- TGI (HS 578T breast): > 100 µM
- TGI (OVCAR-4 ovarian): > 100 µM
- TGI (SNB-19 CNS): > 100 µM
- TGI (SF-295 CNS): > 100 µM
- TGI (DU-145 prostate): > 100 µM
- TGI (KM12 colon): > 100 µM
- TGI (TK-10 renal): > 100 µM
- TGI (MDA-N): > 100 µM
- TGI (SN12C renal): > 100 µM
- TGI (BT-549 breast): > 100 µM

SMILES: CC(C)C(Sc1nc(-c2ccccc2)c(-c2ccccc2)[nH]1)C(=O)NNC(=S)Nc1ccccc1 (centres undefined)
- TGI (MALME-3M melanoma): 33.3 µM
- TGI (A498 renal): 44.5 µM
- TGI (OVCAR-4 ovarian): 79.2 µM
- TGI (SNB-19 CNS): 58.6 µM
- TGI (SF-295 CNS): 35.5 µM
- TGI (KM12 colon): 28.9 µM
- TGI (TK-10 renal): > 100 µM
- TGI (SN12C renal): 33.8 µM

SMILES: C[N+](C)(C)CC(=O)N/N=c1\cc(C(=O)Nc2ccc(N=O)cc2C#N)oc2cc(O)ccc12
- TGI (MALME-3M melanoma): > 100 µM
- TGI (A498 renal): > 100 µM
- TGI (OVCAR-4 ovarian): > 100 µM
- TGI (SNB-19 CNS): > 100 µM
- TGI (SF-295 CNS): > 100 µM
- TGI (KM12 colon): > 100 µM
- TGI (TK-10 renal): > 100 µM
- TGI (SN12C renal): > 100 µM

SMILES: COC1(C)CC2N(C(=O)c3ccccc3)N=C(c3ccccc3)CC2(C)O1 (centres undefined)
- TGI (MALME-3M melanoma): > 100 µM
- TGI (A498 renal): > 100 µM
- TGI (OVCAR-4 ovarian): > 100 µM
- TGI (SNB-19 CNS): > 100 µM
- TGI (SF-295 CNS): > 100 µM
- TGI (KM12 colon): > 100 µM
- TGI (SN12C renal): > 100 µM

SMILES: COC(=O)c1cc(CC(C)C)c2c(c1)[nH]c1ccccc12
- TGI (MALME-3M melanoma): > 100 µM
- TGI (A498 renal): > 100 µM
- TGI (OVCAR-4 ovarian): > 100 µM
- TGI (SNB-19 CNS): > 100 µM
- TGI (SF-295 CNS): > 100 µM
- TGI (KM12 colon): > 100 µM
- TGI (TK-10 renal): > 100 µM
- TGI (SN12C renal): > 100 µM

SMILES: CO[C@@H](C(=O)OC1C=CC2(CC1)C(=O)N(C)c1ccccc12)c1ccccc1 (some centres undefined)
- TGI (A498 renal): > 100 µM
- TGI (OVCAR-4 ovarian): > 100 µM
- TGI (SNB-19 CNS): > 100 µM
- TGI (SF-295 CNS): > 100 µM
- TGI (DU-145 prostate): > 100 µM
- TGI (KM12 colon): > 100 µM
- TGI (TK-10 renal): > 100 µM
- TGI (MDA-N): > 100 µM
- TGI (SN12C renal): > 100 µM

SMILES: N#C/C(=C\NC(=S)Nc1ccc(S(=O)(=O)Nc2ccccn2)cc1)C(N)=O
- TGI (MALME-3M melanoma): > 100 µM
- TGI (A498 renal): > 100 µM
- TGI (HS 578T breast): > 100 µM
- TGI (OVCAR-4 ovarian): > 100 µM
- TGI (SNB-19 CNS): > 100 µM
- TGI (SF-295 CNS): > 100 µM
- TGI (DU-145 prostate): > 100 µM
- TGI (KM12 colon): > 100 µM
- TGI (TK-10 renal): > 100 µM
- TGI (MDA-N): > 100 µM
- TGI (SN12C renal): > 100 µM

SMILES: COc1ccc(/C(=C/n2ccnc2)C(=O)c2ccc(OC)c(OC)c2)cc1
- TGI (MALME-3M melanoma): > 100 µM
- TGI (A498 renal): > 100 µM
- TGI (OVCAR-4 ovarian): > 100 µM
- TGI (SNB-19 CNS): > 100 µM
- TGI (KM12 colon): > 100 µM
- TGI (TK-10 renal): > 100 µM
- TGI (SN12C renal): > 100 µM

SMILES: Cc1cc(=O)cc2sc3c(C)cccc3nc1-2
- TGI (MALME-3M melanoma): > 100 µM
- TGI (A498 renal): 41.7 µM
- TGI (OVCAR-4 ovarian): 30 µM
- TGI (SNB-19 CNS): > 100 µM
- TGI (SF-295 CNS): > 100 µM
- TGI (KM12 colon): 48.2 µM
- TGI (TK-10 renal): 77.4 µM
- TGI (SN12C renal): 78.7 µM

SMILES: O=c1oc2ccccc2c(O)c1C(c1cc(OCc2ccccc2)cc(OCc2ccccc2)c1)c1c(O)c2ccccc2oc1=O
- TGI (A498 renal): 32.1 µM
- TGI (HS 578T breast): 89.3 µM
- TGI (OVCAR-4 ovarian): 68.4 µM
- TGI (SNB-19 CNS): 17.9 µM
- TGI (SF-295 CNS): 24 µM
- TGI (DU-145 prostate): 24.5 µM
- TGI (KM12 colon): 14.7 µM
- TGI (TK-10 renal): 33.4 µM
- TGI (SN12C renal): 21.3 µM
- TGI (BT-549 breast): 20.9 µM

SMILES: COC(=O)C(C#N)=C1c2ccccc2Oc2ccccc21
- TGI (MALME-3M melanoma): > 100 µM
- TGI (A498 renal): > 100 µM
- TGI (OVCAR-4 ovarian): > 100 µM
- TGI (SNB-19 CNS): > 100 µM
- TGI (SF-295 CNS): > 100 µM
- TGI (KM12 colon): > 100 µM
- TGI (TK-10 renal): > 100 µM
- TGI (SN12C renal): > 100 µM

SMILES: Cc1ccccc1C1OC1C(=O)c1ccccc1N (centres undefined)
- TGI (A498 renal): > 100 µM
- TGI (OVCAR-4 ovarian): > 100 µM
- TGI (SNB-19 CNS): > 100 µM
- TGI (DU-145 prostate): > 100 µM
- TGI (KM12 colon): > 100 µM
- TGI (TK-10 renal): > 100 µM
- TGI (MDA-N): 36.3 µM
- TGI (SN12C renal): > 100 µM

SMILES: O=C1NC(c2ccc(O)cc2)C2CCC1C2 (centres undefined)
- TGI (MALME-3M melanoma): > 100 µM
- TGI (A498 renal): > 100 µM
- TGI (OVCAR-4 ovarian): > 100 µM
- TGI (SNB-19 CNS): > 100 µM
- TGI (SF-295 CNS): > 100 µM
- TGI (KM12 colon): > 100 µM
- TGI (TK-10 renal): > 100 µM
- TGI (SN12C renal): > 100 µM

SMILES: CC(=O)NC1C(OCc2ccccc2)OC(CO)C(O)C1OCC(=O)N[C@@H](C)C(=O)N[C@H](CCC(=O)NCCNCCNc1c2ccccc2nc2cccc([N+](=O)[O-])c12)C(N)=O (some centres undefined)
- TGI (MALME-3M melanoma): 55.5 µM
- TGI (A498 renal): 48.1 µM
- TGI (HS 578T breast): > 100 µM
- TGI (OVCAR-4 ovarian): 40.2 µM
- TGI (SNB-19 CNS): > 100 µM
- TGI (SF-295 CNS): > 100 µM
- TGI (DU-145 prostate): > 100 µM
- TGI (KM12 colon): 78.5 µM
- TGI (TK-10 renal): > 100 µM
- TGI (MDA-N): > 100 µM
- TGI (SN12C renal): > 100 µM

SMILES: CC(C)(C)C(=O)C(CC(=O)c1ccccc1)C(=O)C(C)(C)C
- TGI (MALME-3M melanoma): > 100 µM
- TGI (A498 renal): > 100 µM
- TGI (HS 578T breast): > 100 µM
- TGI (OVCAR-4 ovarian): > 100 µM
- TGI (SNB-19 CNS): > 100 µM
- TGI (SF-295 CNS): > 100 µM
- TGI (DU-145 prostate): > 100 µM
- TGI (KM12 colon): > 100 µM
- TGI (TK-10 renal): > 100 µM
- TGI (MDA-N): > 100 µM
- TGI (SN12C renal): > 100 µM

SMILES: O=c1[nH]c2nc3ccccc3c(=O)n2/c1=C/c1ccc(O)cc1
- TGI (MALME-3M melanoma): > 100 µM
- TGI (HS 578T breast): 69.7 µM
- TGI (OVCAR-4 ovarian): > 100 µM
- TGI (SNB-19 CNS): 51.3 µM
- TGI (SF-295 CNS): > 100 µM
- TGI (DU-145 prostate): > 100 µM
- TGI (KM12 colon): > 100 µM
- TGI (TK-10 renal): > 100 µM
- TGI (MDA-N): > 100 µM
- TGI (SN12C renal): > 100 µM
- TGI (BT-549 breast): > 100 µM

SMILES: O=C(/C=C/c1ccccc1)/C=C/c1ccccc1O
- TGI (MALME-3M melanoma): 1.83 µM
- TGI (A498 renal): 70.9 µM
- TGI (SNB-19 CNS): 61.5 µM
- TGI (SF-295 CNS): 48.8 µM
- TGI (KM12 colon): 31.7 µM
- TGI (TK-10 renal): 96.3 µM
- TGI (SN12C renal): 30.4 µM

SMILES: CCN(CC)CCn1c2cc3c(cc2c(=O)c2cccnc21)OCCO3
- TGI (MALME-3M melanoma): > 10 µM
- TGI (HS 578T breast): > 10 µM
- TGI (OVCAR-4 ovarian): > 10 µM
- TGI (SNB-19 CNS): > 10 µM
- TGI (SF-295 CNS): > 10 µM
- TGI (DU-145 prostate): > 10 µM
- TGI (KM12 colon): > 10 µM
- TGI (TK-10 renal): > 10 µM
- TGI (MDA-N): > 10 µM
- TGI (SN12C renal): > 10 µM
- TGI (BT-549 breast): > 10 µM

SMILES: CCOP(=O)(OCC)[C@H](O)c1ccsc1
- TGI (MALME-3M melanoma): > 100 µM
- TGI (A498 renal): > 100 µM
- TGI (OVCAR-4 ovarian): > 100 µM
- TGI (SNB-19 CNS): > 100 µM
- TGI (SF-295 CNS): > 100 µM
- TGI (DU-145 prostate): > 100 µM
- TGI (KM12 colon): > 100 µM
- TGI (TK-10 renal): > 100 µM
- TGI (MDA-N): > 100 µM
- TGI (SN12C renal): > 100 µM
- TGI (BT-549 breast): > 100 µM

SMILES: COc1ccc(C2C(Cl)C(=O)N2NC(=O)c2ccc(NC(C)=O)cc2)cc1 (centres undefined)
- TGI (MALME-3M melanoma): > 100 µM
- TGI (A498 renal): > 100 µM
- TGI (OVCAR-4 ovarian): > 100 µM
- TGI (SNB-19 CNS): > 100 µM
- TGI (SF-295 CNS): > 100 µM
- TGI (TK-10 renal): > 100 µM
- TGI (SN12C renal): > 100 µM

SMILES: CC(C)(C)OC(=O)NC(Cc1ccc(O)cc1)C(=O)NC(CCCCN)C(=O)NC(Cc1ccc(O)cc1)C(=O)NC(CCCCN)C(=O)ON1C(=O)CCC1=O (centres undefined) (Boc-YKYK-OSu; configuration not given here)
- TGI (MALME-3M melanoma): > 100 µM
- TGI (A498 renal): > 100 µM
- TGI (HS 578T breast): > 100 µM
- TGI (SNB-19 CNS): > 100 µM
- TGI (KM12 colon): > 100 µM
- TGI (TK-10 renal): > 100 µM
- TGI (MDA-N): > 100 µM
- TGI (SN12C renal): > 100 µM
- TGI (BT-549 breast): > 100 µM
